Experimental data as given in ChEMBL document CHEMBL3243971, “Synthesis and beta-adrenoceptor activity of the erythro and threo isomers of substituted alpha-hydroxytrimetoquinol” (J Med Chem, 1978).

Columns and labels:
[1] = target: T1, Adrenergic receptor beta (Rattus norvegicus) (UniProt P18090+P10608+P26255); conditions: Sprague-Dawley, Plasma
Description: Agonist activity at beta-adrenoceptor in Sprague-Dawley rat adipocytes assessed as adenylate cyclase activity in plasmalemma measured as radiolabelled cAMP level after 10 mins by scintillation counting

Cavia porcellus [2] = organism: Cavia porcellus; assay: Agonist activity at beta-adrenoceptor in guinea pig atrium assessed as positive chronotropic effect; assay type: tissue-based; conditions: Cardiac atrium
Cavia porcellus [3] = organism: Cavia porcellus; assay: Intrinsic activity at beta-adrenoceptor in guinea pig trachea assessed as tracheal relaxation at 10^-10 to 10^-4 M relative to control; assay type: tissue-based
Cavia porcellus [4] = organism: Cavia porcellus; assay: Intrinsic activity at beta-adrenoceptor in guinea pig atrium assessed as positive chronotropic effect at 10^-10 to 10^-4 M relative to control; assay type: tissue-based; conditions: Cardiac atrium
[5] = target: T1, Adrenergic receptor beta (Rattus norvegicus); conditions: Sprague-Dawley
Description: Agonist activity at beta-adrenoceptor in Sprague-Dawley rat adipocytes assessed as lipolysis measured as glycerol release

[6] = target: T1, Adrenergic receptor beta (Rattus norvegicus); conditions: Sprague-Dawley; remark: listed apart in the source
Description: Agonist activity at beta-adrenoceptor in Sprague-Dawley rat fat cells assessed as cAMP accumulation after 10 mins

Cavia porcellus [7] = organism: Cavia porcellus; assay: Agonist activity at beta-adrenoceptor in guinea pig trachea assessed as tracheal relaxation; assay type: tissue-based

| SMILES | pD2 [1] | pD2 (Cavia porcellus [2]) | Intrinsic activity (Cavia porcellus [3]) | Intrinsic activity (Cavia porcellus [4]) | pD2 [5] | pD2 [6] | pD2 (Cavia porcellus [7]) |
| --- | --- | --- | --- | --- | --- | --- | --- |
| COc1cc([C@@H](O)[C@@H]2NCCc3cc(O)c(O)cc32)cc(OC)c1OC (racemic) | 6.2 | 6.1 | 0.76 | 0.78 | 6.8 | 6.4 | 6 |
| COc1cc(C[C@@H]2NCCc3cc(O)c(O)cc32)cc(OC)c1OC (racemic) | 8.5 | 9.1 | 0.88 | 0.9 | 7.3 | 7.7 | 9 |
| COc1cc([C@H](O)[C@@H]2NCCc3cc(O)c(O)cc32)cc(OC)c1OC (racemic) | 6.8 | 6.5 | 0.88 | 0.8 | 7 | 6.7 | 6.8 |
